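Results reflect a 48-hour exposure of cells in 96-well plates to compound at five concentrations. GI50 is the concentration that inhibits growth by half.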 Active and inactive are the calls of the source. Rule as the data show it: active = GI50 up to about 1.1 µM and inactive = higher.
Tests used:
Assay in all cases: NCI tumour cell line growth inhibition, 48 h
RPMI-8226 = system: RPMI-8226
HL-60 = system: HL-60
SNB-19 = system: SNB-19
ACHN = system: ACHN
EKVX = system: EKVX
M14 = system: M14
MCF7 = system: MCF7
NCI-H23 = system: NCI-H23
COLO 205 = system: COLO 205
NCI-H522 = system: NCI-H522
BT-549 = system: BT-549
MOLT-4 = system: MOLT-4
SK-MEL-2 = system: SK-MEL-2
OVCAR-4 = system: OVCAR-4
SN12C = system: SN12C
K562 = system: K562
DU-145 = system: DU-145
CAKI-1 = system: CAKI-1
NCI/ADR-RES = system: NCI/ADR-RES
NCI-H460 = system: NCI-H460
MDA-MB-231 = system: MDA-MB-231
A549 = system: A549
Malme-3M = system: Malme-3M
UO-31 = system: UO-31
U-251 = system: U-251
T47D = system: T47D
OVCAR-8 = system: OVCAR-8
SF-539 = system: SF-539
SK-MEL-28 = system: SK-MEL-28
786-0 = system: 786-0
OVCAR-5 = system: OVCAR-5
HCT-15 = system: HCT-15
LOX IMVI = system: LOX IMVI
HT-29 = system: HT-29
SK-MEL-5 = system: SK-MEL-5
OVCAR-3 = system: OVCAR-3
TK-10 = system: TK-10
UACC-257 = system: UACC-257
MDA-MB-435 = system: MDA-MB-435
NCI-H226 = system: NCI-H226
SR = system: SR
MDA-N = system: MDA-N
UACC-62 = system: UACC-62
SF-268 = system: SF-268
KM12 = system: KM12
CCRF-CEM = system: CCRF-CEM
HOP-62 = system: HOP-62
HCC 2998 = system: HCC 2998
HCT-116 = system: HCT-116
SF-295 = system: SF-295
RXF 393 = system: RXF 393
SW-620 = system: SW-620
IGROV-1 = system: IGROV-1
PC-3 = system: PC-3
SK-OV-3 = system: SK-OV-3
SNB-75 = system: SNB-75
HOP-92 = system: HOP-92

c1cc2c(s1)-c1sccc1C21OCCO1
GI50 (RPMI-8226): 81.7 µM (inactive) | GI50 (HL-60): > 100 µM (inactive) | GI50 (SNB-19): > 100 µM (inactive) | GI50 (ACHN): > 100 µM (inactive) | GI50 (EKVX): > 100 µM (inactive) | GI50 (M14): > 100 µM (inactive) | GI50 (MCF7): 49.9 µM (inactive) | GI50 (NCI-H23): > 100 µM (inactive) | GI50 (COLO 205): > 100 µM (inactive) | GI50 (NCI-H522): 82.8 µM (inactive) | GI50 (BT-549): 50.5 µM (inactive) | GI50 (MOLT-4): > 100 µM (inactive) | GI50 (SK-MEL-2): 60 µM (inactive) | GI50 (OVCAR-4): > 100 µM (inactive) | GI50 (SN12C): > 100 µM (inactive) | GI50 (K562): > 100 µM (inactive) | GI50 (DU-145): > 100 µM (inactive) | GI50 (CAKI-1): > 100 µM (inactive) | GI50 (NCI/ADR-RES): > 100 µM (inactive) | GI50 (NCI-H460): > 100 µM (inactive) | GI50 (MDA-MB-231): > 100 µM (inactive) | GI50 (A549): 69 µM (inactive) | GI50 (Malme-3M): 67.1 µM (inactive) | GI50 (UO-31): > 100 µM (inactive) | GI50 (U-251): > 100 µM (inactive) | GI50 (T47D): 17.3 µM (inactive) | GI50 (OVCAR-8): > 100 µM (inactive) | GI50 (SF-539): > 100 µM (inactive) | GI50 (SK-MEL-28): > 100 µM (inactive) | GI50 (786-0): > 100 µM (inactive) | GI50 (OVCAR-5): > 100 µM (inactive) | GI50 (HCT-15): 76.2 µM | GI50 (LOX IMVI): > 100 µM (inactive) | GI50 (HT-29): 97.7 µM (inactive) | GI50 (SK-MEL-5): 53.5 µM (inactive) | GI50 (OVCAR-3): > 100 µM (inactive) | GI50 (TK-10): > 100 µM (inactive) | GI50 (UACC-257): 45.6 µM (inactive) | GI50 (MDA-MB-435): > 100 µM (inactive) | GI50 (NCI-H226): > 100 µM (inactive) | GI50 (SR): > 100 µM (inactive) | GI50 (MDA-N): > 100 µM (inactive) | GI50 (UACC-62): 19.5 µM (inactive) | GI50 (SF-268): 18.7 µM (inactive) | GI50 (KM12): > 100 µM (inactive) | GI50 (CCRF-CEM): > 100 µM (inactive) | GI50 (HOP-62): > 100 µM (inactive) | GI50 (HCC 2998): > 100 µM (inactive) | GI50 (HCT-116): 58.9 µM (inactive) | GI50 (SF-295): > 100 µM (inactive)

CCN(CC)CCNc1n[n+]([O-])c2ccccc2[n+]1[O-]
GI50 (RPMI-8226): 3.06 µM (inactive) | GI50 (HL-60): 2.28 µM (inactive) | GI50 (SNB-19): 12.5 µM (inactive) | GI50 (ACHN): 3.79 µM (inactive) | GI50 (RXF 393): 8.63 µM (inactive) | GI50 (M14): 10.1 µM (inactive) | GI50 (COLO 205): 5.52 µM (inactive) | GI50 (BT-549): 17.7 µM (inactive) | GI50 (MOLT-4): 1.73 µM (inactive) | GI50 (SN12C): 3.56 µM (inactive) | GI50 (K562): 3.25 µM (inactive) | GI50 (DU-145): 13.9 µM (inactive) | GI50 (NCI/ADR-RES): 18.6 µM (inactive) | GI50 (Malme-3M): 8.38 µM (inactive) | GI50 (UO-31): 17.9 µM (inactive) | GI50 (U-251): 12.6 µM (inactive) | GI50 (T47D): 5.32 µM (inactive) | GI50 (OVCAR-8): 8.65 µM (inactive) | GI50 (SF-539): 17.7 µM (inactive) | GI50 (SW-620): 11.9 µM (inactive) | GI50 (SK-MEL-28): 39.3 µM (inactive) | GI50 (786-0): 4.74 µM (inactive) | GI50 (OVCAR-5): 14.7 µM (inactive) | GI50 (HCT-15): 2 µM | GI50 (HT-29): 8.93 µM (inactive) | GI50 (SK-MEL-5): 1.57 µM (inactive) | GI50 (IGROV-1): 2.43 µM (inactive) | GI50 (OVCAR-3): 9.02 µM (inactive) | GI50 (TK-10): 8.89 µM (inactive) | GI50 (PC-3): 8.53 µM (inactive) | GI50 (MDA-MB-435): 22.3 µM (inactive) | GI50 (NCI-H226): 9.93 µM (inactive) | GI50 (MDA-N): 12.2 µM (inactive) | GI50 (UACC-62): 3.96 µM (inactive) | GI50 (SF-268): 18.9 µM (inactive) | GI50 (KM12): 9.98 µM (inactive) | GI50 (CCRF-CEM): 3.57 µM (inactive) | GI50 (HCC 2998): 3.39 µM (inactive) | GI50 (HCT-116): 8.22 µM (inactive) | GI50 (SF-295): 4.78 µM (inactive)

N#C/C(=C\c1cc(F)cc(F)c1)c1ccccn1
GI50 (RPMI-8226): 14.9 µM (inactive) | GI50 (HL-60): > 10 µM (inactive) | GI50 (SNB-19): 45.6 µM (inactive) | GI50 (ACHN): 30.6 µM (inactive) | GI50 (EKVX): 13 µM (inactive) | GI50 (RXF 393): 26.7 µM (inactive) | GI50 (M14): 25.8 µM (inactive) | GI50 (MCF7): 26.9 µM (inactive) | GI50 (NCI-H23): 26.1 µM (inactive) | GI50 (COLO 205): > 10 µM (inactive) | GI50 (NCI-H522): 24.2 µM (inactive) | GI50 (BT-549): 30.1 µM (inactive) | GI50 (MOLT-4): 13.7 µM (inactive) | GI50 (SK-MEL-2): 22.9 µM (inactive) | GI50 (OVCAR-4): 45.8 µM (inactive) | GI50 (SK-OV-3): 61.8 µM (inactive) | GI50 (SN12C): 24 µM (inactive) | GI50 (K562): 15.5 µM (inactive) | GI50 (DU-145): 36.9 µM (inactive) | GI50 (CAKI-1): 39.5 µM (inactive) | GI50 (NCI/ADR-RES): 23.6 µM (inactive) | GI50 (NCI-H460): 22.7 µM (inactive) | GI50 (A549): 28.6 µM (inactive) | GI50 (Malme-3M): 25.9 µM (inactive) | GI50 (UO-31): 34.7 µM (inactive) | GI50 (U-251): 16.8 µM (inactive) | GI50 (OVCAR-8): 16 µM (inactive) | GI50 (SF-539): 19.5 µM (inactive) | GI50 (SW-620): > 10 µM (inactive) | GI50 (SNB-75): 16.1 µM (inactive) | GI50 (SK-MEL-28): 47 µM (inactive) | GI50 (786-0): > 10 µM (inactive) | GI50 (OVCAR-5): 28.8 µM (inactive) | GI50 (HCT-15): 15.4 µM | GI50 (HT-29): 34.4 µM (inactive) | GI50 (SK-MEL-5): 13.3 µM (inactive) | GI50 (IGROV-1): 54.8 µM (inactive) | GI50 (HOP-92): 20.5 µM (inactive) | GI50 (OVCAR-3): 36.1 µM (inactive) | GI50 (TK-10): 30.8 µM (inactive) | GI50 (PC-3): 24.3 µM (inactive) | GI50 (UACC-257): 32.1 µM (inactive) | GI50 (NCI-H226): 17.5 µM (inactive) | GI50 (SR): 24 µM (inactive) | GI50 (MDA-N): 19.7 µM (inactive) | GI50 (UACC-62): 45.1 µM (inactive) | GI50 (SF-268): 19.4 µM (inactive) | GI50 (KM12): 22.1 µM (inactive) | GI50 (CCRF-CEM): 18.1 µM (inactive) | GI50 (HOP-62): > 10 µM (inactive) | GI50 (HCC 2998): 21.1 µM (inactive) | GI50 (HCT-116): 27.9 µM (inactive) | GI50 (SF-295): 16.3 µM (inactive)

O=c1ccn(C2OC(CO)C(O)C2O)c(=O)[nH]1 (configuration not stated)
GI50 (M14): > 1000 µM (inactive) | GI50 (NCI-H522): > 1000 µM (inactive) | GI50 (BT-549): > 1000 µM (inactive) | GI50 (DU-145): > 1000 µM (inactive) | GI50 (CAKI-1): > 1000 µM (inactive) | GI50 (MDA-MB-231): > 1000 µM (inactive) | GI50 (OVCAR-5): > 1000 µM (inactive) | GI50 (UACC-257): > 1000 µM (inactive) | GI50 (NCI-H226): > 1000 µM (inactive)
